Assay [1] deals with B. pertussis. The settings on record: in vivo; cited from earlier work.
Assay [2] relates to Factor Xa procoagulant activity on THP-1 cells. Put plainly: Generation of Factor Xa by monocytes (THP-1), clotting assay. It counts as cell-based. The settings on record: for Factor Xa / Clotting time: peptides 0.5 mM; for reduction of Factor Xa production: 0.5 mM, vs scrambled FHA II, 20 min; for Clotting time: mean ± SD of at least 3 experiments. Here is the method: Factor Xa generation was determined by a modification of the method of Miletich et al. (1978), J. Biol. Chem. 253: 6908-6916. THP-1 cells (ATCC; […]) resuspended in RPMI 1640 (Bio Whittaker, Walkersville,Md.) were incubated with 100 μM ADP (Sigma), 2.5 mM CaC2, 1 or 5 μg/ml Factor X (Hematologic Technologies Inc.) and 0.5 mM peptides at room temperature. After 20 minutes, 100 μl of the reaction mixture was transferred to 37° C. and supplemented with 100 μl of bovine factor VII- and Factor X-deficient plasma (Sigma). Coagulation was initiated by adding 100 μl of 25 mM CaC2 and the clotting time was determined. Factor Xa procoagulant activity (ng/ml) was calculated by means of a standard curve constructed by serial concentrations of Factor Xa (Hematologic Technologies Inc.) from 50 to 250 ng/ml.

In assay [3] the test system is CSF leukocytosis. Put plainly: Rat meningitis model (LOS): CSF leukocytosis. It counts as in vivo, female Wistar rats. The settings on record: 4 hours after LOS. The method, then:
The experiments were performed according to established protocols (Wispelway et al., 1988, J. Clin. Invest., 82: 1339-1346). Purified Haemophilus influenzae type b strain DL42 lipooligosaccharide (LOS) was prepared for inoculation by sonication for 30 minutes, dilution to the desired concentration (20 ng/50 μl) in normal saline or PBS, and sonication for an additional 15 to 30 minutes just prior to use.
(§1) Briefly, anesthetized female Wistar rats were placed under a micromanipulator and inoculated intracisternally with a 25 gauge needle. After removal of 50 μl of CSF (without visible blood contamination), rats were inoculated intracisternally with 50 μl (20 ng) of LOS using a 1 ml syringe with a 25 gauge needle. Ten to fifteen minutes after inoculation with LOS, the rats were treated by intravenous administration of the test substance: a solution of an FHA peptide in PBS, a solution of a control peptide in PBS, or an equal volume of PBS alone.
(§2) Three hours after LOS inoculation, 5 μCi of ^125 I-radiolabelled albumin in 50 μl normal saline was administered intravenously. One hour later, CSF was collected via intracisternal puncture and blood samples were collected via intracardiac puncture. CSF leukocytosis was determined by manually counting white blood cells using a hemacytometer, and blood-brain barrier permeability was determined as the percent of radioactivity in whole blood that was present in the CSF. Blood samples were obtained immediately prior to inoculation, immediately prior to treatment, and at 4 hours post-inoculation for determination of peripheral white blood cell concentrations.

The subject of assay [4] is neutrophil adherence to human umbilical vein endothelial cells (HUVEC). Put plainly: Adherence of neutrophils to cultured (TNF alpha stimulated) endothelial cells. In kind it is cell-based. The method, then:
FIG. 17 is a bar graph representation of the inhibition of neutrophil adherence to activated endothelial cells by FHA, Factor X- and FHA- derived peptides. The concentration of inhibiting substances was: peptides 0.5 mM, native FHA 0.3 μM. Values represent the mean±standard deviation of 4 experiments with 5 wells/peptide.
FIG. 18 is a graphical representation of the FHA, FHA- or Factor X-peptide concentration effects on the inhibition of neutrophil adherence to activated endothelial cells. FHA peptide II monomer (Square) and trimer (Diamond), Factor X peptide II (Circle) at 10^-9 μM to 0.5 mM; native FHA at 10^-6 to 3×10^2 μM (triangle). Values represent the mean of 3 experiments with 5 wells/peptide (standard deviations <15%).
FIG. 25 is a graphical representation of the inhibition of neutrophil adherence to activated endothelial cells by FHA and FHA peptides. FIG. 25A: Peptide concentrations were 0.5 mM (FHA 0.2 μM). Values represent mean±standard deviation of four experiments with 5 wells/peptide; FIG. 25B represents the mean±standard deviation of triplicate experiments with 5 wells/peptide. Native FHA (.quadrature.); FHA peptide Ca (.largecircle.).
Human umbilical vein endothelial cells (HUVEC, first passage, Clonetics, San Diego, Calif.) were subcultured at confluence into Terasaki tissue culture wells. After 24 hours, confluent monolayers were used for adherence assays. Monolayers were stimulated with 10 ng/ml TNF alpha (Boehringer Mannheim, Indianapolis, Ind.) at 37° C. for four hours. 30 μl of human neutrophils (10^6 /ml) were labeled with fluorescein by the method of Lo et al. (1991), J. ExP. Med. 173 1493-1500, and preincubated for 15 minutes at 37° C. with 20 μl of peptides (0.5 mM in HAP) or HAP (phosphate buffered saline containing 0.5 mg/ml human serum albumin, 3 mM glucose, and 0.3 U/ml aprotinin) as a control buffer. For some experiments, endothelial cells were pretreated from 10 minutes with Factor X or antibodies against Factor X receptor (EPR-1; Altieri et al. (1990), J. Immunol. 145, 246-253) 12H1 and 9D4 (obtained from Dr. D. Altieri, Scripps Research Institute, LaJolla, Calif.) and then washed. Neutrophils were allowed to adhere to the monolayer for 15 mins. at 37° C. and unbound cells were removed by submersion of the plate in PBS buffer. The number of adherent neutrophils was counted in a 40× microscope field and expressed as a percentage of adherence in control wells with neutrophils treated with HAP buffer alone. The mAb IB4 against CD18 (50 μg/ml; Merck Inc., Rahway, N.J.) served as a positive control.
The ability of FHA peptides and anti-CD18 or anti-Factor X receptor antibodies to interact cooperatively to inhibit neutrophil adherence to endothelial cells was assessed by measuring neutrophil adherence to endothelial cells in the presence of antibody as well as antibody plus peptide. […] Anti-Factor X receptor mAb 12H1 (10 μl of ascites) or 9D4 (10 μg/ml) were added to the endothelial cell monolayers 10 min before the assay. The peptides were added at 5 μg/ml. The results are shown in Table 8 where the numerical values are in % of control binding.
(§3) The procedures for determining the neutrophil adherence to cultured endothelial cells and the transendothelial migration of neutrophils were identical with those of Example 9. Control values were the same as those shown in Example 9.

Assay [5] has as its system transendothelial migration of human neutrophils through HUVEC monolayers. Put plainly: Transendothelial migration (TEM) of neutrophils. The settings on record: peptides 0.01 mM, native FHA 1 μM; at least 3 experiments with 6 wells/peptide. It counts as cell-based.
From the text: FIG. 26 is a graphical representation of the inhibition of transendothelial migration of neutrophils by FHA peptide Ca, native FHA and mAb IB4 in a concentration dependent fashion. FHA peptide Ca (.largecircle.); intact FHA (.quadrature.); and mAb IB4 (.tangle-solidup.). Values represent mean±standard deviation of at least 3 experiments with 6 wells/peptide.
Transendothelial migration of neutrophils was studied based on a method described by Muller et al. (1992), J. Exp. Med. 176: 819-828. Briefly, human neutrophils suspended in ice-cold Hanks balanced salt solution (HBSS) containing Ca^++ and Mg^++ (Sigma) were fluoresceinated by adding 3.3 μl/ml 5-(and 6-)carboxyfluorescein diacetate, succinimidyl ester (CFSE, Molecular Probes Inc., Oreg.). After incubation for 30 mins. on ice, neutrophils were washed twice in cold HBSS with Ca^++ and Mg^++ and resuspended in cold Medium 199 (M199, Sigma) to a final concentration of 10^6 /ml. Human umbilical vein endothelial cells were subcultured at confluence into 96-well tissue culture plates (Becton Dickinson Labware, Lincoln Park, N.J.) that were coated with hydrated collagen gel (Vitrogen; Collagen Corporation, Palo Alto, Calif.) and fibronectin. Endothelial cells were stimulated with 10 ng/ml TNF-alpha for 4 hours and washed three times with warm M199. Neutrophils (10^6 /ml) were preincubated with 0.01 mM of peptides or with 1 μM of native FHA in M199 for 5 mins. on ice before they were added in 100 μl aliquots to the endothelial cells. For positive control, neutrophils were pre-incubated with 25 μg/ml anti-CD18 mAb IB4. For negative control, neutrophils were treated with 25 μg/ml mAb W6/32 against HLA class I antigen (Dako, Carpinteria, Calif.). The cells were incubated for 1 hour at 37° C., 5% CO2. To terminate transmigration, the supernatant fluid was aspirated and the wells were filled with warm 1 mM EGTA (Sigma) in HBSS without Ca and Mg. The plates were covered with plate sealers (Dynatech, Alexandria, Va.) and centrifuged in an inverted position at 250 g for 3 mins. at room temperature. To remove residual non-transmigrated neutrophils from the endothelial cells, monolayers were washed twice with 200 μl of warm Hanks solution without Ca and Mg. Fluorescence was quantitated using a fluorescence counter (Millipore Cytofluorm™ 2300). The percentage of transmigrated neutrophils was determined by comparing the amount of fluorescence of test wells with that measured in collagen- and fibronectin-coated wells without endothelial cells. […] Percent inhibition of transendothelial migration of neutrophils was calculated by comparing the number of transmigrated cells in wells containing neutrophils treated with peptide to neutrophils treated with M199 alone and arbitrarily set at 100% transendothelial migration (TEM).
as §3

Assay [6] relates to Factor X binding to CR3. The settings on record: cited from earlier work.
The subject of assay [7] is blood-brain barrier permeability. In words: Rat meningitis model (LOS): blood-brain barrier permeability (125I-albumin). It counts as in vivo, female Wistar rats. The settings on record: 100 nmol; percent of radioactivity in whole blood present in CSF. Here is the method: as §1, §2
In assay [8] the test system is recognition of C3bi by antibody 12.1F9. Put plainly: Inhibition of binding of 12.1F9 to E^C3bi by peptides. The arrangement: species or system human. The settings on record: peptides 50 μg/ml; for Adherence index: normalized to control value of 100, 6 experiments. The source says: Values are normalized to a control value of 100; data are expressed as the mean±SD of 6 experiments with duplicate wells.

Some results are limits rather than exact numbers.

Consider `OC[C@H]1O[C@@H](O[C@H]2[C@H](O)[C@@H](O)C(O)O[C@@H]2CO)[C@H](O)[C@@H](O)[C@H]1O` (stereo partly drawn) [Lactose], for which the “colonization of rabbit lung (in words)” value in assay [1] is reported as “decrease colonization of rabbit lung”.
`CC(=O)N[C@@H](CC(C)C)C(=O)N[C@@H](CC(C)C)C(=O)N[C@H](C=O)CCCNC(=N)N` [Leupeptin, reference compound]: the “Factor Xa” value in assay [2] is less than 10.0 ng/mL.
“Ac-VEEDTKG-NH2 [scrambled ac/am FHA II, VEEDTKG]”: the “Leukocytosis (CSF)” value in assay [3] (600 nmol i.v.) is on record as 14,287 ± 10,199 cells/ml; in assay [3] (600 nmol i.v., listed as control peptide (scrambled ac/am FHA II)) it was “approximately 14,000 cells/ml”.
As to “FHA peptide A: synthetic peptide, residues 1055-1099, SEQ ID NO: 20 (IGALKAGAVEAASPRRARRALRQDFFTPGSVVVRAQGNVTVGRGD; UniProt P12255 1055-1099, looked up, fragment)”, in assay [4] (45/50-mer peptides, FHA peptide C 1 mg/ml, 0.2 mM), the “inhibition of neutrophil adherence” value is reported as less than 15%.
In the case of GLIQGRSVKVD [FHA Ib], the “% Inhibition of TEM” value in assay [5] is given as 7 ± 10%. Moreover, in assay [2], the “reduction of Factor Xa production” value came out at 81%, the “Factor Xa” value stood at 31.3 ng/mL and the Clotting time was 38.0 ± 7.6 s.
Regarding GLYQAKRFKVG [Factor X I], in assay [5], the “% Inhibition of TEM” value turned out to be 10 ± 6%. In assay [2], the “effect on Factor Xa generation (in words)” value is on record as “substantial reduction that did not reach statistical significance”, the “Factor Xa” value came to 37.8 ng/mL and the Clotting time was determined as 37.0 ± 4.0 s. Further, in assay [6], the “inhibition of binding of CR3 bearing cells to Factor X (in words)” value is reported as “competitively inhibit the binding of CR3 bearing tissue culture cells to purified Factor X”.
Consider “GRTRG (UniProt P12255 32-36, looked up, fragment) [FHA III]”, for which the “inhibition of neutrophil adherence (in words)” value in assay [4] (peptides 0.5 mM (Example 9)) is reported as “less effective than the corresponding Factor X derived peptide”. Also, the “% Inhibition of TEM” value in assay [5] came to 5 ± 6%. In assay [2], the “reduction of Factor Xa production” value is listed as 74%, the “Factor Xa” value is 43.4 ng/mL and the Clotting time is 36.2 ± 2.7 s.
On to IDRSMKTRG [Factor X III], for which the “% Inhibition of TEM” value in assay [5] came to 5 ± 7%. Further, in assay [2], the “effect on Factor Xa generation (in words)” value is on record as “substantial reduction that did not reach statistical significance”, the “Factor Xa” value came to 107.5 ng/mL and the Clotting time was 26.5 ± 2.4 s. The “inhibition of binding of CR3 bearing cells to Factor X (in words)” value in assay [6] is given as “competitively inhibit the binding of CR3 bearing tissue culture cells to purified Factor X”.
Take IDVPQHGGAMRDLGIAQGKD [scrambled FHA Ca]: the “Leukocytosis (CSF)” value in assay [3] (100 nmol i.v.) is given as 20,700 ± 7,400 cells/ml; in assay [3] (100 nmol i.v., listed as control peptide (scrambled FHA Ca)), “approximately 20,000 cells/ml”. Besides, in assay [7], the BBB permeability was determined as 6.74 ± 3.48%.
In turn, “TRYRGDQDATMS [C3/12, reference compound]” came in with an Adherence index in assay [8] of 127 ± 27.
Same read-out and setting: as for VTVGRGDPAQG [FHA RGD], the figure is 85 ± 9.
In the case of YTVAIAGYALA [C3-pep 1187-1197], in assay [8], the “block of binding of 12.1F9 to E^C3bi” value is “up to 60%” and the Adherence index is listed as 30 ± 16.
YTVSADAIALA [FHA 1408-1418]: in assay [8], the “block of binding of 12.1F9 to E^C3bi” value was “up to 60%” and the Adherence index is 21 ± 11.

The values are drawn from patent US5792457A, “Antibody recognizing endothelial cell ligand for leukocyte CR3” (priority 1995, dated 1998).
